Where “and” joins values, the source holds several entries; their conditions need not be identical. Equal entries are not always repeated.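 Five compound concentrations were applied to cells in 96-well plates for 48 hours; endpoints were derived by simple linear interpolation of the resulting dose-response curve. GI50 marks 50% less growth. At the TGI there is no net growth.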 Where a SMILES comes first, the peptide text is derived from it. The star is where a group is joined. Boc = CC(C)(C)OC(=O)*
What was measured:
Experiment in all cases: NCI tumour cell line growth inhibition, 48 h
[1] = test system: NCI-H460 lung
[2] = test system: NCI/ADR-RES ovarian
[3] = test system: NCI-H522 lung
[4] = test system: HT29 colon
[5] = test system: SK-OV-3 ovarian
[6] = test system: SK-MEL-5 melanoma
[7] = test system: HOP-62 NSCLC
[8] = test system: T-47D breast
[9] = test system: HCT-116 colon
[10] = test system: TK-10 renal

SMILES | TGI [1] | TGI [2] | TGI [3] | TGI [4] | TGI [5] | TGI [6] | TGI [7] | TGI [8] | TGI [9] | TGI [10] | GI50 [1] | GI50 [3] | GI50 [4] | GI50 [6] | GI50 [7] | GI50 [8] | GI50 [9] | GI50 [10] | GI50 [2] | GI50 [5]
CCOC(=O)c1ccc(Nc2c3c(nc4ccccc24)CCCC3)cc1 | > 100 µM | > 100 µM | > 27.7 µM | > 100 µM | > 100 µM | > 100 µM | > 83.9 µM | > 100 µM | > 100 µM | > 100 µM |  |  |  |  |  |  |  |  |  | 
CC1(C)N=C(C(N)=O)c2ncn(N)c2N1 | > 100 µM | > 100 µM | > 100 µM | > 100 µM | > 100 µM | > 100 µM | > 100 µM | > 100 µM | > 100 µM | > 100 µM |  |  |  |  |  |  |  |  |  | 
C[n+]1c(-c2ccc(/C=N/NC(=N)N/N=C/c3ccc(-c4cn5cc(Cl)ccc5[n+]4C)cc3)cc2)cn2cc(Cl)ccc21 | > 100 µM | > 100 µM | > 100 µM | > 100 µM | > 100 µM | > 100 µM | > 100 µM | > 100 µM | > 100 µM | > 100 µM |  |  |  |  |  |  |  |  |  | 
CCN(CC)CC1CCCCN1CC(=O)N1c2ccccc2NC(=O)CC1C (configuration not stated) | > 100 µM | > 100 µM | > 100 µM | > 100 µM | > 100 µM | > 100 µM | > 100 µM | > 100 µM | > 100 µM | > 100 µM |  |  |  |  |  |  |  |  |  | 
Cc1nc(C)c(C(=O)NNC(N)=S)cc1C(=O)NNC(N)=S | > 100 µM | > 100 µM | > 100 µM | > 100 µM | > 100 µM | > 100 µM | > 100 µM | > 100 µM | > 100 µM | > 100 µM |  |  |  |  |  |  |  |  |  | 
CC(C)/C(Cl)=N\OC(=O)Nc1ccccc1F | 36.2 µM | 30.7 µM |  | 54.3 µM | 33.4 µM | 27.9 µM | > 55.6 µM | 49.5 µM | 23.9 µM | 27.6 µM |  |  |  |  |  |  |  |  |  | 
CCCSc1ccc2[nH]c(N3C(=O)/C(=C/c4ccco4)N=C3c3ccccc3)cc2c1 | > 50 µM | > 50 µM | 37.8 µM | > 50 µM |  | 30.3 µM | > 50 µM | > 50 µM | > 50 µM |  |  |  |  |  |  |  |  |  |  | 
Nn1c(COc2cccc(OCc3n[nH]c(=S)n3N)c2)n[nH]c1=S | > 100 µM | > 100 µM | > 100 µM | > 100 µM | > 100 µM |  | > 100 µM | > 100 µM | > 100 µM | > 100 µM |  |  |  |  |  |  |  |  |  | 
O=CN1CCN(C(=O)c2ccc(Cl)cc2Cl)C1=S | > 100 µM | > 100 µM | 46.8 µM | > 100 µM | > 100 µM |  | > 100 µM | > 100 µM | > 100 µM | > 100 µM |  |  |  |  |  |  |  |  |  | 
COC(=O)CCC(=O)NC1=C(NCc2ccccc2)C(=O)c2ccccc2C1=O | > 100 µM | > 100 µM | 50 µM | > 100 µM | > 100 µM | 24.9 µM |  | > 100 µM | > 100 µM | > 100 µM |  |  |  |  |  |  |  |  |  | 
O=C(/C=C/c1ccc(O)c(O)c1)OCCCc1ccccc1 | 55.6 µM | 28.6 µM | 5.59 µM | 48.4 µM | 58.9 µM | 26.3 µM | 26.6 µM | 45.9 µM | 22.4 µM |  |  |  |  |  |  |  |  |  |  | 
O=C(c1ccco1)N1CCCN(C(=O)c2ccco2)C1=S | > 100 µM | > 100 µM |  | > 100 µM | > 100 µM | > 100 µM | > 100 µM | 93.3 µM | > 100 µM | > 100 µM |  |  |  |  |  |  |  |  |  | 
C1CCC2(CC1)O[C@@H]1[C@@H](O2)[C@@H](O[C@H]2O[C@@H]3COC4(CCCCC4)O[C@H]3[C@@H]3OC4(CCCCC4)O[C@@H]23)O[C@@H]2COC3(CCCCC3)O[C@@H]12 |  | > 100 µM | > 100 µM | > 100 µM | > 100 µM | > 100 µM | > 100 µM | > 100 µM | > 100 µM | > 100 µM |  |  |  |  |  |  |  |  |  | 
Oc1ccc(-c2nc(-c3cccnc3)c(-c3ccc(Cl)cc3)[nH]2)cc1O |  | 32.5 µM | 4.68 µM | 27.7 µM | 25.5 µM | 27.6 µM | 25.3 µM | 37.9 µM | 26.7 µM | 26.7 µM |  |  |  |  |  |  |  |  |  | 
COC(=O)C(Cc1c[nH]c2ccccc12)NC(=O)C(Cc1c[nH]c2ccccc12)NC(=O)C(Cc1c[nH]c2ccccc12)NC(=O)C(Cc1c[nH]c2ccccc12)NC(=O)C(Cc1c[nH]c2ccccc12)NC(=O)C(Cc1c[nH]c2ccccc12)NC(=O)OC(C)(C)C (configuration not stated) (Boc-WWWWWW-OMe; configuration not given here) | > 100 µM |  | > 100 µM | > 100 µM |  | 70.5 µM | > 100 µM | > 100 µM | > 100 µM | > 100 µM |  |  |  |  |  |  |  |  |  | 
O=C1CCC2(CC1CC(Sc1ccccc1)Sc1ccccc1)OCCO2 (configuration not stated) | > 100 µM | > 100 µM | 85.4 µM | > 100 µM | > 100 µM | 38 µM | > 100 µM | 97.3 µM |  | > 100 µM |  |  |  |  |  |  |  |  |  | 

SMILES | TGI [1] | TGI [2] | TGI [3] | TGI [4] | TGI [5] | TGI [6] | TGI [7] | TGI [8] | TGI [9] | TGI [10] | GI50 [1] | GI50 [3] | GI50 [4] | GI50 [6] | GI50 [7] | GI50 [8] | GI50 [9] | GI50 [10] | GI50 [2] | GI50 [5]
O=C(NCCC1([N+](=O)[O-])CCN(C(=O)c2ccccc2)CC1)c1ccccc1 | > 100 µM | > 100 µM | > 100 µM | > 100 µM | > 100 µM | > 100 µM |  | > 100 µM | > 100 µM | > 100 µM |  |  |  |  |  |  |  |  |  | 
BrCCCCCOc1ccc(-c2c3ccccc3c(-c3ccc(OCCCCCBr)cc3)c3ccccc23)cc1 | > 100 µM | > 100 µM |  | > 100 µM | > 100 µM | > 100 µM | > 100 µM | > 100 µM | > 100 µM | > 100 µM |  |  |  |  |  |  |  |  |  | 
O=S(=O)(c1ccccc1)n1c2ccc(Br)cc2c2nc3ccccc3nc21 | > 100 µM | > 100 µM | > 100 µM | > 100 µM |  | > 100 µM | > 100 µM | > 100 µM | > 100 µM | > 100 µM |  |  |  |  |  |  |  |  |  | 
CCCCC(=O)NS(=NC(=O)c1ccccc1)C(Cl)(Cl)Cl (configuration not stated) | > 100 µM | > 100 µM |  | > 100 µM | > 100 µM | > 100 µM | > 100 µM | > 100 µM | > 100 µM | > 100 µM |  |  |  |  |  |  |  |  |  | 
O=S(=O)(CCBr)CCBr | 29.9 µM | 5.02 µM | 3.11 µM | 20.3 µM | 43.6 µM | 19.8 µM | 43.1 µM |  | 10.5 µM |  |  |  |  |  |  |  |  |  |  | 
CC(=O)N=C1N(/C=C2\C(=O)Oc3ccccc3C2=O)C(=O)/C(=C/c2ccc(OC(C)=O)cc2)N1C | > 100 µM | > 100 µM | > 100 µM | > 100 µM | > 100 µM | > 100 µM | > 100 µM | > 100 µM | > 100 µM |  |  |  |  |  |  |  |  |  |  | 
COC(=O)C1Cc2c(OC)ccc(OC)c2CC(C(=O)OC)C1=O (configuration not stated) | > 100 µM | > 100 µM | > 100 µM | > 100 µM | > 100 µM | > 100 µM | > 100 µM | > 100 µM | > 100 µM |  |  |  |  |  |  |  |  |  |  | 
O=C1CC2(c3ccccc3)ON=C(c3ccccc3)N2c2ccccc2N1 (configuration not stated) | > 100 µM | > 100 µM | > 100 µM | > 100 µM | 51.7 µM |  | > 100 µM | > 100 µM | > 100 µM | > 100 µM |  |  |  |  |  |  |  |  |  | 
[N-]=[N+]=C1N=CN=C1c1ncn[nH]1 |  | > 100 µM | > 100 µM | > 100 µM | > 100 µM | > 100 µM | > 100 µM | 83 µM | > 100 µM | > 100 µM |  |  |  |  |  |  |  |  |  | 
CCCCCCCCOC1C(O)C(O)C(O)C(O)C12CO2 (configuration not stated) | > 100 µM | > 100 µM | > 100 µM | > 100 µM | > 100 µM |  | > 100 µM | > 100 µM | > 100 µM | > 100 µM |  |  |  |  |  |  |  |  |  | 
CC(=O)OCCCOCn1c(Cc2ccccc2)c(C)c(=O)[nH]c1=O | > 100 µM |  | > 100 µM | > 100 µM | > 100 µM | > 100 µM | > 100 µM | > 100 µM | > 100 µM | > 100 µM |  |  |  |  |  |  |  |  |  | 
CC[C@H](O)[C@H](C)C=C1SCCCS1 |  | > 100 µM | > 100 µM | > 100 µM | > 100 µM | > 100 µM | > 100 µM |  | > 100 µM | > 100 µM |  |  |  |  |  |  |  |  |  | 
Cc1c(Cl)nc(Nc2nc3ccccc3[nH]2)nc1Cl | > 100 µM | > 100 µM | > 100 µM | 89 µM | > 100 µM | > 100 µM |  | > 100 µM | > 100 µM | > 100 µM |  |  |  |  |  |  |  |  |  | 
O=C(Nc1cccc(-n2ccc3c(NC(=O)c4ccccc4)nccc32)c1)Nc1cc(C(F)(F)F)cc(C(F)(F)F)c1 | > 50 µM |  | 2.69 µM | 4.31 µM |  | 1.95 µM | > 50 µM | > 50 µM | 6.31 µM | 32.5 µM | 1.7 µM | 0.83 µM | 1.37 µM | 0.946 µM | 3.75 µM | 12.6 µM | 1.69 µM | 1.83 µM |  | 
N[C@H](C(=O)O)[C@H]1ON=C(Cl)[C@@H]1O | > 52.9 µM and 174 µM | > 469 µM | 62.6 µM | > 296 µM | > 231 µM | > 96.2 µM and 246 µM | 78.2 µM |  | > 550 µM |  | 3.92 µM | > 25.8 µM | 1.24 µM | 4.39 µM | 16 µM |  | 4.4 µM |  | 15.3 µM | 4.86 µM
Cc1ccsc1/C=N/Nc1nc2ccccc2s1 |  | 77.4 µM |  | > 100 µM | 35.3 µM | 47.9 µM | 22.4 µM | > 100 µM | 23.2 µM | 26.9 µM |  |  |  |  |  |  |  |  |  | 
